Data taken from patent US7666890B2, “Synthesis and herbicidal activity of 1- (2-substituted benzo[d]thiazol-5-yl)-1H-1,2,4-triazol-5(4H)-one derivatives” (Huazhong Normal University, priority 2007, dated 2010).

Columns and labels:
Test in all cases: Test of herbicidal activities (greenhouse pot method)
Type in all cases: in vivo
Conditions in all cases: single dose 300 g ai./h, treated before/after germination, 15 days later, greenhouse pot
Amaranthus retroflexus = system: Amaranthus retroflexus
Procedure: (§1) Garden soil was collected from regions where no pesticide is used and mixed uniformly with mountain soil and organic humus soil at a volume ratio of 1:1:1.
(§2) Multiple flowerpots each having a diameter of 9.5 cm and a depth of 8 cm were filled with the soil mixture to 3/4 volume. After water was added to the soil and the soil was completely wet, seeds of three grass weeds and three broadleaf weeds were inserted into the flowerpots (10-15 seeds for each weed). After seeding, the seeds were covered with fine oil mixed with sand and having a thickness of 1-3 cm. After the soil absorbed enough water and became saturated, excess water at the bottom of the flowerpot was drained, and the seeds were placed in a greenhouse for growth.
(§3) The weeds were watered every day so as to keep relative humidity of the soil at approximately 80%, growing temperature of 15-30° C., and air humidity above 50%. As the grass weeds grew to a 2-leaf stage and the broadleaf weeds was in a leaf period, spraying operation […] was performed on the stems and leafs. Planting before germination was performed before spraying. Soil processing was performed before the seeds of the weeds emerged.
(§4) Six target weeds comprising three grass weeds: Echinochloa crusgalli, Digiatria sanguinalis, Setaria viridis, along with three broadleaf weeds: Brassica juncea, Amaranthus retroflexus, Chenopodium album were treated before/after germination using a so-called “greenhouse pot” method with a single dose. A treating dose was 300 g ai./h. The process was repeated three times, and a blank control was used.
(§5) A 3WPSHZ-500 type automatic spraying tower with a spraying area of 0.132 m^2, a spray volume of 10 mL, working pressure of 0.2 MPa, and a liquid volume of 40% of maximum was used. After treatment, the weeds were placed in a greenhouse at a temperature of 15-30° C. Reaction symptoms of the weeds were regularly observed, and 15 days later, five reaction levels were determined according to the following inhibition intervals: 90≦A≦100%; 80≦B<90%, 60≦C<80%; 50≦D<60%, E<50%.

Brassica juncea = system: Brassica juncea
Procedure: as §1, §2, §3, §4, §5

Chenopodium album = system: Chenopodium album
Procedure: as §1, §2, §3, §4, §5

Digiatria sanguinalis = system: Digiatria sanguinalis
Procedure: as §1, §2, §3, §4, §5

Echinochloa crusgalli = system: Echinochloa crusgalli
Procedure: as §1, §2, §3, §4, §5

Setaria viridis = system: Setaria viridis
Procedure: as §1, §2, §3, §4, §5

Row | Structure (SMILES) | Herbicidal activity Amaranthus retroflexus (inhibition level) (Amaranthus retroflexus) | Herbicidal activity Brassica juncea (inhibition level) (Brassica juncea) | Herbicidal activity Chenopodium album (inhibition level) (Chenopodium album) | Herbicidal activity Digiatria sanguinalis (inhibition level) (Digiatria sanguinalis) | Herbicidal activity Echinochloa crusgalli (inhibition level) (Echinochloa crusgalli) | Herbicidal activity Setaria viridis (inhibition level) (Setaria viridis)
1 | Cc1nn(-c2cc3nc(S(=O)(=O)Cc4cccc(Cl)c4)sc3cc2Cl)c(=O)n1C(F)F [Compound 40] | B (80 ≦ B < 90%) | B (80 ≦ B < 90%) | D (50 ≦ D < 60%) | C (60 ≦ C < 80%) | E (E < 50%) | C (60 ≦ C < 80%)
2 | Cc1nn(-c2cc3nc(S(=O)(=O)Cc4ccc(Cl)cc4)sc3cc2Cl)c(=O)n1C(F)F [Compound 41] | C (60 ≦ C < 80%) | C (60 ≦ C < 80%) | D (50 ≦ D < 60%) | B (80 ≦ B < 90%) | D (50 ≦ D < 60%) | C (60 ≦ C < 80%)
3 | Cc1nn(-c2cc3nc(S(=O)(=O)Cc4ccc(Br)cc4)sc3cc2Cl)c(=O)n1C(F)F [Compound 42] | A (90 ≦ A ≦ 100%) | C (60 ≦ C < 80%) | D (50 ≦ D < 60%) | A (90 ≦ A ≦ 100%) | E (E < 50%) | B (80 ≦ B < 90%)
4 | Cc1ccccc1CS(=O)(=O)c1nc2cc(-n3nc(C)n(C(F)F)c3=O)c(F)cc2s1 [Compound 43] | A (90 ≦ A ≦ 100%) | C (60 ≦ C < 80%) | C (60 ≦ C < 80%) | D (50 ≦ D < 60%) | D (50 ≦ D < 60%) | C (60 ≦ C < 80%)
5 | Cc1nn(-c2cc3nc(S(=O)(=O)Cc4cccc(F)c4)sc3cc2Cl)c(=O)n1C(F)F [Compound 44] | B (80 ≦ B < 90%) | C (60 ≦ C < 80%) | C (60 ≦ C < 80%) | C (60 ≦ C < 80%) | C (60 ≦ C < 80%) | B (80 ≦ B < 90%)
6 | Cc1nn(-c2cc3nc(S(=O)(=O)Cc4ccc(F)cc4F)sc3cc2Cl)c(=O)n1C(F)F [Compound 45] | A (90 ≦ A ≦ 100%) | B (80 ≦ B < 90%) | B (80 ≦ B < 90%) | A (90 ≦ A ≦ 100%) | E (E < 50%) | C (60 ≦ C < 80%)
7 | Cc1ccc([N+](=O)[O-])c(CS(=O)(=O)c2nc3cc(-n4nc(C)n(C(F)F)c4=O)c(F)cc3s2)c1 [Compound 46] | A (90 ≦ A ≦ 100%) | E (E < 50%) | C (60 ≦ C < 80%) | B (80 ≦ B < 90%) | D (50 ≦ D < 60%) | B (80 ≦ B < 90%)
8 | Cc1ccc(CS(=O)(=O)c2nc3cc(-n4nc(C)n(C(F)F)c4=O)c(F)cc3s2)cc1 [Compound 47] | A (90 ≦ A ≦ 100%) | A (90 ≦ A ≦ 100%) | C (60 ≦ C < 80%) | A (90 ≦ A ≦ 100%) | B (80 ≦ B < 90%) | C (60 ≦ C < 80%)
